According to patent US6017511A, “Glycopeptide-chelator conjugates” (Resolution Pharmaceuticals Inc., priority 1997, dated 2000):
Converted amounts (≈) assume the structure as drawn.

Experiments:
[1] = Filter binding assay of Tc-99m-labelled conjugates; conditions: Tc-99m-labelled conjugate, zymosan suspension 50 mg/mL
Description: (§6) *Note: C. albicans has a longer growth cycle than the other microorganisms and, therefore, the culture is incubated for 2 days. Also, the optimum growth temperature for C. albicans is 30° C.
The flasks are incubated in a shaking water bath (200 rpm) at 37° C. A 10 mL zymosan suspension at 50 mg/mL and a 0.5% carrageenan mixture are also made. There is also a background which is a flask containing broth with no microorganism and to which the radioactivity is also added. At various time intervals, 200 mL of the cultures, suspensions, and the background is removed and filtered through 25 mm diam., 22 mm, cellulose acetate/nitrate, membrane filters (Millipore) using a Millipore vacuum manifold. The filters are washed 3× with 1 mL PBS. The filters are then assayed for radioactivity using a gamma well counter (Cobra II; Canberra Packard). The time intervals at which the cultures are sampled are: […]

[2] = test system: S. aureus (ATCC 25923); assay: Filter binding assay of Tc-99m-labelled conjugates; conditions: Tc-99m-labelled conjugate, 37° C.
Description: S. aureus (ATCC 25923)→TSB
(§7) The cultures are then subcultured by removing 50-150 mL of the culture (O.D. dependent) and transferring to a 50 mL culture flask containing 20 mL broth. The subcultures are incubated at 37° C. or 30° C. until a growth concentration of 10^8 cfu (colony forming unit)/mL is reached. The concentration of each microorganism is determined by reading the optical density (O.D.) of the subculture using a spectrophotometer. The correlation between O.D. and growth of each microorganism has been previously established.
(§8) The flasks are incubated in a shaking water bath (200 rpm) at 37° C. […] There is also a background which is a flask containing broth with no microorganism and to which the radioactivity is also added. […] The filters are then assayed for radioactivity using a gamma well counter (Cobra II; Canberra Packard). […]

[3] = test system: E. coli (ATCC 25922); assay: Filter binding assay of Tc-99m-labelled conjugates; conditions: Tc-99m-labelled conjugate, 37° C.
Description: E. coli (ATCC 25922)→Tryptic Soy Broth (TSB; Difco)
as §7, §8

[4] = test system: S. aureus; assay: microbe, parasite or virus in culture; type: cell-based; conditions: for antimicrobial activity at the concentrations tested: S. aureus, up to 64 mg/mL
Description: (§1) Fresh cultures of bacteria are made from frozen stock stored at -80° C. To inoculate a fresh culture, the stock is removed from the freezer and continually kept frozen by being placed on dry ice. A small amount is removed using a sterile wooden applicator and transferred to a 50 mL culture flask, with screw cap, containing 10 mL of broth medium. The culture is incubated at 37° C. on an orbital shaker at 200 rpm overnight. The various bacteria and broth media used are:
(§2) The following day, the cultures are subcultured by transferring […] (O.D. dependent) to a new culture flask containing 20 mL broth. The subcultures are incubated at 37° C. on a shaker (200 rpm) and the bacteria are allowed to grow to mid-log phase. This is usually around 1×10^8 cfu/mL, determined by measuring the O.D. of the subculture. The correlation between O.D. and growth of each bacteria has been previously established.
(§3) Once the proper O.D. has been obtained, a 200- or 400-fold dilution is made of the subculture and 1 mL of this dilution is added to 1 mL of compound or antibiotic (i.e. 2-fold dilution) to give a final concentration of 0, 2, 4, 8, 16, 32, and 64 mg/mL compound or antibiotic. A 100-fold dilution is made from the control culture (0 mg/mL) and […] samples (i.e. 1000-fold dilution) are plated onto a TSA (tryptic soy agar; Difco). The cultures are incubated overnight at 37° C. on an orbital shaker (200 rpm). The TSA plates are also incubated overnight at 37° C.
(§4) The following day, the cultures are examined for growth or turbidity. […] samples (i.e. 10-fold dilution) of any of the cultures showing no turbidity, i.e. no growth, are plated onto TSA. The plates are incubated overnight at 37° C. and the number of cfu, if any, are counted. The control TSA plates are counted for the number of cfu for comparison with the culture plates.
(§5) MIC (minimal inhibitory concentration) is determined to be the lowest concentration at which growth of the bacteria is arrested. MBC (minimal bactericidal concentration) is determined to be the lowest concentration at which the bacteria are being killed.

[5] = test system: C. albicans (ATCC 14053); assay: Filter binding assay of Tc-99m-labelled conjugates; conditions: Tc-99m-labelled conjugate
Description: as §6
C. albicans (ATCC 14053)→YM Broth (YMB; Difco)
The cultures are then subcultured by removing 50-150 mL of the culture (O.D. dependent) and transferring to a 50 mL culture flask containing 20 mL broth. […] The concentration of each microorganism is determined by reading the optical density (O.D.) of the subculture using a spectrophotometer.
as §8

[6] = test system: P. aeruginosa (ATCC PAO-PR1); assay: Filter binding assay of Tc-99m-labelled conjugates; conditions: Tc-99m-labelled conjugate, 37° C.
Description: Frozen cultures of bacteria are stored in vials at -80° C. until use. To inoculate a fresh bacterial culture, the vial of bacteria is removed from the freezer and continually kept frozen by being placed on dry ice. A small amount is removed using a sterile wooden applicator and transferred to a 50 mL culture flask, with screw cap, containing 10 mL of broth medium. The culture is incubated at 37° C. on a shaker at 200 rpm overnight*. The various microorganisms or compounds and broth media used are:
P. aeruginosa (ATCC PAO-PR1)→TSB
The cultures are then subcultured by removing […] of the culture (O.D. dependent) and transferring to a 50 mL culture flask containing 20 mL broth. The subcultures are incubated at 37° C. or 30° C. until a growth concentration of 10^8 cfu (colony forming unit)/mL is reached. The concentration of each microorganism is determined by reading the optical density (O.D.) of the subculture using a spectrophotometer. […]
Once the proper O.D. has been reached, 10 mL of the subculture is transferred to a 15 mL culture flask and 1×10^6 cpm of Tc-99m-labelled compound is added. […] There is also a background which is a flask containing broth with no microorganism and to which the radioactivity is also added. […] The filters are then assayed for radioactivity using a gamma well counter (Cobra II; Canberra Packard). […]

[7] = test system: P. aeruginosa; assay: Antimicrobial assay; type: cell-based; conditions: up to 64 mg/mL
Description: as §1, §2, §3, §4, §5

[8] = test system: E. coli; assay: Antimicrobial assay; type: cell-based; conditions: up to 64 mg/mL
Description: as §1, §2, §3, §4, §5

| Compound | Filter Binding Assay Results at 2 h, Zymosan [1] [%] | Filter Binding Assay Results at 2 h, S. aureus [2] [%] | Filter Binding Assay Results at 2 h, E. coli [3] [%] | MBC (minimal bactericidal concentration) [4] [mg/mL] | MIC (minimal inhibitory concentration) [4] [mg/mL] | antimicrobial activity at the concentrations tested [4] | Filter Binding Assay Results at 2 h, C. albicans [5] [%] | Filter Binding Assay Results at 2 h, P. aeruginosa [6] [%] | antimicrobial activity at the concentrations tested [7] | antimicrobial activity at the concentrations tested [8] | MBC ([4]; Staphylococcus aureus, read-out: MBC (minimal bactericidal concentration)) [mg/mL] |
| --- | --- | --- | --- | --- | --- | --- | --- | --- | --- | --- | --- |
| CN[C@H](CC(C)C)C(=O)N[C@H]1C(=O)N[C@@H](CC(N)=O)C(=O)N[C@H]2C(=O)N[C@H]3C(=O)N[C@H](C(=O)N[C@H](C(=O)NCCCNC(=O)CNC(=O)C(CSCNC(C)=O)NC(=O)C(CO)NC(=O)CN(C)C)c4cc(O)cc(O)c4-c4cc3ccc4O)[C@H](O)c3ccc(c(Cl)c3)Oc3cc2cc(c3O[C@@H]2O[C@H](CO)[C@@H](O)[C@H](O)[C@H]2O[C@H]2C[C@](C)(N)[C@H](O)[C@H](C)O2)Oc2ccc(cc2Cl)[C@H]1O (stereo partly drawn) [(IA), DimethylGly-Ser-Cys(Acm)-Gly-NH(CH2)3 NH-Vancomycin] | 35 | 48 | 31 | 32 (≈ 16.8 mM) | 16 to 32 | antimicrobial against only S. aureus | 21 | 25 | antimicrobial against only S. aureus | antimicrobial against only S. aureus |  |
| CN[C@H](CC(C)C)C(=O)N[C@H]1C(=O)N[C@@H](CC(N)=O)C(=O)N[C@H]2C(=O)N[C@H]3C(=O)N[C@H](C(=O)N[C@H](C(=O)O)c4cc(O)cc(O)c4-c4cc3ccc4O)[C@H](O)c3ccc(c(Cl)c3)Oc3cc2cc(c3O[C@@H]2O[C@H](CO)[C@@H](O)[C@H](O)[C@H]2O[C@H]2C[C@](C)(N)[C@H](O)[C@H](C)O2)Oc2ccc(cc2Cl)[C@H]1O [Vancomycin, reference compound] |  |  |  |  |  | antimicrobial against only S. aureus |  |  | antimicrobial against only S. aureus | antimicrobial against only S. aureus | 32 to 64 (≈ 22.1 to 44.2 mM) |
| DimethylGly-Ser-Cys(Acm)-(βAla)3 -Lys(N^ε -Vancomycin)-Gly-OH [(IB)] | 42 | 22 | 18 |  |  |  | 5 |  |  |  |  |
